# Measured values from US20260207602A1, “EGFR INHIBITORS” (Blueprint Medicines Corporation, priority 2022, published 2026).
# Where two headings read alike, the source gives them in different places.
# Assays:
# EGFR L858R = biological target: T1, EGFR L858R (Homo sapiens, UniProt P00533, L858R); experiment: Biochemical EGFR inhibition assay (Caliper mobility shift), EGFR L858R; conditions: read-out: Enz EGFR L858R IC50
# T1 construct: purchased SignalChem E10-122BG
# How it was run: (§1)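 Mobility-shift readout: phosphorylated and unphosphorylated 5-FAM peptide (2.5 µM) separated electrophoretically. Reactions at room temperature (25 °C), 1.0 mM ATP or ATP Km, HEPES pH 7.5 with MgCl2, Brij-35, DTT and 1.0% DMSO; terminated at 10–20% turnover with 35 mM EDTA. Apparent IC50 fitted.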
# EGFR (d746-750) = biological target: T2, EGFR (d746-750) (Homo sapiens, UniProt P00533, DEL746-750); experiment: Biochemical EGFR inhibition assay (Caliper mobility shift), EGFR (d746-750); conditions: read-out: Enz EGFR Exon 19-del IC50
# T2 construct: purchased SignalChem E10-122JG
# How it was run: as §1
# [1] = biological target: intracellular phosphorylation of EGFR (Tyr1068) in PC-9 cells (Homo sapiens, UniProt P00533, DEL746-750); experiment: PC-9 pEGFR AlphaLISA assay; format: cell-based; conditions: 4 hours incubation, read-out: Phos EGFR PC9 IC50
# How it was run: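 PC-9 cells (EGFR del746-750) in phenol-free DMEM/10% FBS, adhered overnight, then exposed to 10-point 4-fold compound dilutions for 4 h at 37 °C. Lysates assayed for pEGFR Tyr1068 by AlphaLISA SureFire Ultra; IC50 from percent pEGFR inhibition vs log concentration.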
# EGFR M+ NSCLC patients = conditions: first line (1L), NSCLC harboring del19 and L858R mutations; cited from earlier work
# [2] = biochemical Caliper mobility shift assay, EGFR L858R enzyme
# [3] = biochemical Caliper mobility shift assay, EGFR Exon 19-del enzyme
# T2 sequence (P00533 with tags, fused parts or gaps DEL746-750 limits assumed): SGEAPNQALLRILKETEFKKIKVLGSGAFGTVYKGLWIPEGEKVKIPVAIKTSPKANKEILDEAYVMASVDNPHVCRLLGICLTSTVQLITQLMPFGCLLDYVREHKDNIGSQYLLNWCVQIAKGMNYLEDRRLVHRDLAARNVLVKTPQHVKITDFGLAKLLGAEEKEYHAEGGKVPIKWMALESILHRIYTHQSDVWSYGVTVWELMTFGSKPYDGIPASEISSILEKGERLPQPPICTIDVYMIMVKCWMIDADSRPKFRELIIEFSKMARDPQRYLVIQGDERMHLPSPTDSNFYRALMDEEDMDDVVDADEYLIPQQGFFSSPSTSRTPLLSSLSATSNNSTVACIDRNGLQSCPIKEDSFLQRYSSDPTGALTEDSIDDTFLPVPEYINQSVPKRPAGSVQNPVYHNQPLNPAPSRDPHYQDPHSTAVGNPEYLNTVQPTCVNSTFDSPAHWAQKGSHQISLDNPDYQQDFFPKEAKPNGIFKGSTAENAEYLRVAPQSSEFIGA
# T1 sequence (P00533 25-1210 L858R): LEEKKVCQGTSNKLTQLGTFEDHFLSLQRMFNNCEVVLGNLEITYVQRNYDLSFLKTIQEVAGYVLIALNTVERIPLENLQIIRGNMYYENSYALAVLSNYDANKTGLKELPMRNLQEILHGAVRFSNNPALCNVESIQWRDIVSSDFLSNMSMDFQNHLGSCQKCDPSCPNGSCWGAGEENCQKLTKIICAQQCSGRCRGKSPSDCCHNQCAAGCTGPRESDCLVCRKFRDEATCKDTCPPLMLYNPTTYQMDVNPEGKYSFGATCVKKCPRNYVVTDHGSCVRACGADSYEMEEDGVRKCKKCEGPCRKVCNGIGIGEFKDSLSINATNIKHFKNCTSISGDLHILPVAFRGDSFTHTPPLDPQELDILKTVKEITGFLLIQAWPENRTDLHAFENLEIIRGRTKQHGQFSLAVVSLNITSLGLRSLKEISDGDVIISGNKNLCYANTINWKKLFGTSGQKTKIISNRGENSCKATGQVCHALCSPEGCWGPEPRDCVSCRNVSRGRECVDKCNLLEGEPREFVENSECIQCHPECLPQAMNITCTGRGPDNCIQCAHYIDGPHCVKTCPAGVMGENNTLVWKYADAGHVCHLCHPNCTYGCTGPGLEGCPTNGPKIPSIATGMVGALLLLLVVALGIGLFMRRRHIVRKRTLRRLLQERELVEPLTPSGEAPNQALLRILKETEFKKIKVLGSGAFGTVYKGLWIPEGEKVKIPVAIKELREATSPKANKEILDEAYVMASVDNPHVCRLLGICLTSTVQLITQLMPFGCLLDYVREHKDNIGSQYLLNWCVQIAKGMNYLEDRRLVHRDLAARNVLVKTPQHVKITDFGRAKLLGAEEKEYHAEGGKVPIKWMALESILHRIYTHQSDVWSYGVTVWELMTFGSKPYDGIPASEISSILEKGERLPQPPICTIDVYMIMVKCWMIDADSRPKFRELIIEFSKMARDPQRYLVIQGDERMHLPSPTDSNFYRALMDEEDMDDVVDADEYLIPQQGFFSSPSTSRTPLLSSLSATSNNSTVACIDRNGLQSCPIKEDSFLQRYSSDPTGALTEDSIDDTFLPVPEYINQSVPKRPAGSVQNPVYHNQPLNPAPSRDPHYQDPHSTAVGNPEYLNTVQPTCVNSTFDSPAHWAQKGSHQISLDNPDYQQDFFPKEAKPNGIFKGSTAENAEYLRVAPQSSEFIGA
# Chain of intracellular phosphorylation of EGFR (Tyr1068) in PC-9 cells (P00533 with tags, fused parts or gaps DEL746-750): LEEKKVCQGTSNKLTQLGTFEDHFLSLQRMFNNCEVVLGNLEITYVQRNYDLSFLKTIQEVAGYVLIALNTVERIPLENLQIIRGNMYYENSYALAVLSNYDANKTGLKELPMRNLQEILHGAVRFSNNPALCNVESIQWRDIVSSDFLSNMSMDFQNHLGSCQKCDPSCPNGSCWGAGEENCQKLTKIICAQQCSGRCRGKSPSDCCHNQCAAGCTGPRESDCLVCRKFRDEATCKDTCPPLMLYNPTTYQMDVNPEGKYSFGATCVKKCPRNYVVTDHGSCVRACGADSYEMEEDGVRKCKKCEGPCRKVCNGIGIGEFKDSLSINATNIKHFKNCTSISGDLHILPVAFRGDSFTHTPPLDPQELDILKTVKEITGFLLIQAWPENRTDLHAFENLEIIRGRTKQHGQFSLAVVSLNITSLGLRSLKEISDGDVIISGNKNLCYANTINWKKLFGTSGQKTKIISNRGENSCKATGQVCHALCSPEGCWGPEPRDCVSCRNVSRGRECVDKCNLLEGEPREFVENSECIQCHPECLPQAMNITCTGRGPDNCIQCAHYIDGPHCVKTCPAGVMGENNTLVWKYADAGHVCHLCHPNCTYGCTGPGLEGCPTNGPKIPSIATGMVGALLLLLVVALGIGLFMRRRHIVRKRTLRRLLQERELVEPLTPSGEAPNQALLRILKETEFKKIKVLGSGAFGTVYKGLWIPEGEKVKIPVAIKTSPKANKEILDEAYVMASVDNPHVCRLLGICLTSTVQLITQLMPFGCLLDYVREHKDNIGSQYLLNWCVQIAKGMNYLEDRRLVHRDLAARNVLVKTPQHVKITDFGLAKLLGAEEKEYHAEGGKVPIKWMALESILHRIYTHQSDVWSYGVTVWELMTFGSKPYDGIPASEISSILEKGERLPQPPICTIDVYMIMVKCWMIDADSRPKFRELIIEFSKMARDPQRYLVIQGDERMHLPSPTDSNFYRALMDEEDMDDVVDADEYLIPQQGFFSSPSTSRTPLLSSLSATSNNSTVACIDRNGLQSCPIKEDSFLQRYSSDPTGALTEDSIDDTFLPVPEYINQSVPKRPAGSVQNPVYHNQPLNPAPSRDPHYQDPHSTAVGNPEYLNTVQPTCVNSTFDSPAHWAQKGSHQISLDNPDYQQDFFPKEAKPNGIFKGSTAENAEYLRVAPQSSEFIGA
Compound,IC50 (EGFR L858R; [2]) [nM],IC50 (EGFR (d746-750); [3]) [nM],IC50 [1] [nM],IC50 (EGFR L858R) [nM],IC50 (EGFR (d746-750)) [nM],progression-free survival (PFS) (EGFR M+ NSCLC patients) [mo]
"CN1CCC(Oc2cc(-c3cn(C)n(C(F)F)c3=O)cc3ncnc(Nc4ccc5ncsc5c4)c23)CC1 [Example A17, 4-(4-(benzo[d]thiazol-6-ylamino)-5-((1-methylpiperidin-4-yl)oxy)quinazolin-7-yl)-2-(difluoromethyl)-1-methyl-1,2-dihydro-3H-pyrazol-3-one]",10.1 to 50,≤ 10,10.1 to 50,–,–,–
"COC[C@@H](C)Oc1cc(-n2cc([C@H](C)O)cn2)cc2ncnc(Nc3ccc4ncsc4c3F)c12 [Example A20, (S)-1-(1-(4-((7-fluorobenzo[d]thiazol-6-yl)amino)-5-(((R)-1-methoxypropan-2-yl)oxy)quinazolin-7-yl)-1H-pyrazol-4-yl)ethan-1-ol, OR (R)-1-(1-(4-((7-fluorobenzo[d]thiazol-6-yl)amino)-5-(((R)-1-methoxypropan-2-yl)oxy)quinazolin-7-yl)-1H-pyrazol-4-yl)ethan-1-ol]",≤ 10,≤ 10,≤ 10,–,–,–
"CN1CCN(CC#Cc2cc(OC3CCOCC3)c3c(Nc4ccc5ncsc5c4F)ncnc3c2)CC1 [Example A24, 7-fluoro-N-(7-(3-(4-methylpiperazin-1-yl)prop-1-yn-1-yl)-5-((tetrahydro-2H-pyran-4-yl)oxy)quinazolin-4-yl)benzo[d]thiazol-6-amine]",> 50.1,10.1 to 50,10.1 to 50,–,–,–
"CN1CCC[C@H](Oc2cc(C#CCN3CCOCC3)cc3ncnc(Nc4ccc5ncsc5c4)c23)C1 [Example A25, N-(1,3-benzothiazol-6-yl)-5-{[(3S)-1-methylpiperidin-3-yl]oxy}-7-[3-(morpholin-4-yl)prop-1-yn-1-yl]quinazolin-4-amine]",–,–,10.1 to 50,< 10,< 10,–
"COC[C@@H](C)Oc1cc(-n2cc(C(C)(C)O)cn2)cc2ncnc(Nc3ccc4ncsc4c3F)c12 [Example A26, (R)-2-(1-(4-((7-fluorobenzo[d]thiazol-6-yl)amino)-5-((1-methoxypropan-2-yl)oxy)quinazolin-7-yl)-1H-pyrazol-4-yl)propan-2-ol]",≤ 10,≤ 10,≤ 10,–,–,–
"Cn1ccc(-c2cc3ncnc(Nc4ccc5ncsc5c4)c3cc2NC(=O)CCN2CCCCC2)n1 [Example A47, N-(4-(benzo[d]thiazol-6-ylamino)-7-(1-methyl-1H-pyrazol-3-yl)quinazolin-6-yl)-3-(piperidin-1-yl)propanamide]",≤ 10,≤ 10,≤ 10,–,–,–
C=CC(=O)Nc1cc(Nc2nccc(-c3cn(C)c4ccccc34)n2)c(OC)cc1N(C)CCN(C)C [Osimertinib],–,–,–,–,–,18.9

# Continued, in another order:
IC50 (EGFR L858R; [2]) [nM],IC50 (EGFR (d746-750); [3]) [nM],IC50 [1] [nM],Compound,IC50 (EGFR L858R) [nM],IC50 (EGFR (d746-750)) [nM],progression-free survival (PFS) (EGFR M+ NSCLC patients) [mo]
10.1 to 50,≤ 10,10.1 to 50,"CN1CCC(Oc2cc(-c3cn(C)nc3OC(F)F)cc3ncnc(Nc4ccc5ncsc5c4)c23)CC1 [Example A18, N-(7-(3-(difluoromethoxy)-1-methyl-1H-pyrazol-4-yl)-5-((1-methylpiperidin-4-yl)oxy)quinazolin-4-yl)benzo[d]thiazol-6-amine]",–,–,–
≤ 10,≤ 10,≤ 10,"C[C@@H](Oc1cc(-c2cnn(C)c2)cc2ncnc(Nc3ccc4ncsc4c3)c12)C(CO)CO [Example A56, (R)-2-(1-((4-(benzo[d]thiazol-6-ylamino)-7-(1-methyl-1H-pyrazol-4-yl)quinazolin-5-yl)oxy)ethyl)propane-1,3-diol]",–,–,–
≤ 10,≤ 10,10.1 to 50,"OC(Cn1cc(-c2cc(OC3CCOCC3)c3c(Nc4ccc5ncsc5c4)ncnc3c2)cn1)C(F)(F)F (stereo not shown) [Example A57, 3-(4-(4-(benzo[d]thiazol-6-ylamino)-5-((tetrahydro-2H-pyran-4-yl)oxy)quinazolin-7-yl)-1H-pyrazol-1-yl)-1,1,1-trifluoropropan-2-ol]",–,–,–
≤ 10,≤ 10,10.1 to 50,"Cn1cc(-c2cc(OC3COCOC3)c3c(Nc4ccc5ncsc5c4)ncnc3c2)cn1 [Example A59, N-(5-((1,3-dioxan-5-yl)oxy)-7-(1-methyl-1H-pyrazol-4-yl)quinazolin-4-yl)benzo[d]thiazol-6-amine]",–,–,–
10.1 to 50,≤ 10,10.1 to 50,"CN(C)CCOc1cc(-c2cnn(C)c2)cc2ncnc(Nc3ccc4ncsc4c3)c12 [Example A60, N-(5-(2-(dimethylamino)ethoxy)-7-(1-methyl-1H-pyrazol-4-yl)quinazolin-4-yl)benzo[d]thiazol-6-amine]",–,–,–
